Earlier results in US20250000096A1, “ANTIMICROBIAL COMPOSITION WITH A LOW ODOR” (EVONIK CORPORATION, priority 2021, published 2025).

Conditions: background statement

**Q.** With `CC(=O)O` [acetic acid] as the compound, how does the “limit for olfactory detection” value read?
**A.** 0.15 ppm
